Results: publication PMC8787096, “Antagonism of nicotinic acetycholinergic receptors by CN‐105, an apoE‐mimetic peptide reduces stroke‐induced excitotoxicity” (Clinical and Translational Medicine, 2022)
Like-named read-outs stand apart in the source and are kept apart here. Residues, ends and D or L forms follow the SMILES beside them.

Key:
α7-nAChR [1] = target: T1, α7-nAChR (Homo sapiens, UniProt P36544); assay: Patch clamp of ACh-induced currents, HEK293 cells stably expressing nAChR α7/RIC3; assay type: cell-based; settings: for %Inhibition of α7-nAChR: peptide 200 nM, relative to currents induced by 9 μM ACh
T1 sequence (P36544 23-502): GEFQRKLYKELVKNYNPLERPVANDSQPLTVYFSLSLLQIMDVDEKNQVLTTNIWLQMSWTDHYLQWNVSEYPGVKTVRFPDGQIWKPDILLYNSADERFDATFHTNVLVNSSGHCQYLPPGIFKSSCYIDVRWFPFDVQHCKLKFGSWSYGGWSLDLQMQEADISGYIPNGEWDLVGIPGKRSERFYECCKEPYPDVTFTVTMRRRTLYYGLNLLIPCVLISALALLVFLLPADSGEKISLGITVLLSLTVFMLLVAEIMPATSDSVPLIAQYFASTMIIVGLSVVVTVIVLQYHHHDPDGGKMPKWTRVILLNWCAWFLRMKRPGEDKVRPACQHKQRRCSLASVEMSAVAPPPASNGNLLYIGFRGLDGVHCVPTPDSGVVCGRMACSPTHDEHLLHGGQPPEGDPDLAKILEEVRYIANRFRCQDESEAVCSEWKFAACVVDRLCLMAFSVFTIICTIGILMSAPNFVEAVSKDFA

C57BL6 mice = assay: Mortality of C57BL6 mice after a single tail vein injection; assay type: in vivo
Cynologous monkey = assay: GLP acute toxicology study, iv infusion; assay type: in vivo
Protocol: The acute toxicology study of CN-105 was carried out at the facility of CTI Biotechnology (China) in accordance with GLP guidelines of the National Medical Product Administration (NMPA) of China. Briefly, six Cynologous (Cyn) monkeys were assigned to three dosing groups (n = 2/group, M:F= 1:1). The animals were given an iv. infusion of saline (Group 1), 25 mg/kg CN-105 (Group 2) or 100 mg/kg CN-105 (Group 3) twice a day. The infusion volume was 20mL/kg, while the infusion rate was 30min. Forty SD rats were assigned to four dosing groups (n = 10/group, M:F= 1:1) and were given an iv. injection of saline (Group 1), 15 mg/kg CN-105 (Group 2), 30 mg/kg CN-105 (Group 3) or 45 mg/kg CN-105 (Group 4) twice a day. The infusion volume was 5mL/kg, while the infusion rate was 10min. Animals were monitored for a variety of behavioral, physiological, histological and serological endpoints.

α1β1δε-nAChR = target: T2, α1β1δε-nAChR (Homo sapiens, UniProt P02708+P11230+Q04844+Q07001); assay: Electrophysiology of oocytes injected with nAChR α, β, δ and ε cRNA; assay type: cell-based
T2 construct: expressed in transfected cells
T2 sequence (P02708 21-457): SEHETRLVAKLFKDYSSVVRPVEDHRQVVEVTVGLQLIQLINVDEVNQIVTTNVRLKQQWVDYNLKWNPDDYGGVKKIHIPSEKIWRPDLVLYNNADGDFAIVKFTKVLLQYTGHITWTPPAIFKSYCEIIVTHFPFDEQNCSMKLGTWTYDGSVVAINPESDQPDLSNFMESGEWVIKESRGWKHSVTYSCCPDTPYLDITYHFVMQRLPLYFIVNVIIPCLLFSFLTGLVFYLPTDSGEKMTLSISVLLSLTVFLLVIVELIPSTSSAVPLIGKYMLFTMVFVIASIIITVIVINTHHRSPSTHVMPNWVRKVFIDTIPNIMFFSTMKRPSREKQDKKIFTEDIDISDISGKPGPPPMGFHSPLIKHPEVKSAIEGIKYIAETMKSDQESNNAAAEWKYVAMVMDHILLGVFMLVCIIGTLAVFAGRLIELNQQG
T2 sequence (P11230 24-501): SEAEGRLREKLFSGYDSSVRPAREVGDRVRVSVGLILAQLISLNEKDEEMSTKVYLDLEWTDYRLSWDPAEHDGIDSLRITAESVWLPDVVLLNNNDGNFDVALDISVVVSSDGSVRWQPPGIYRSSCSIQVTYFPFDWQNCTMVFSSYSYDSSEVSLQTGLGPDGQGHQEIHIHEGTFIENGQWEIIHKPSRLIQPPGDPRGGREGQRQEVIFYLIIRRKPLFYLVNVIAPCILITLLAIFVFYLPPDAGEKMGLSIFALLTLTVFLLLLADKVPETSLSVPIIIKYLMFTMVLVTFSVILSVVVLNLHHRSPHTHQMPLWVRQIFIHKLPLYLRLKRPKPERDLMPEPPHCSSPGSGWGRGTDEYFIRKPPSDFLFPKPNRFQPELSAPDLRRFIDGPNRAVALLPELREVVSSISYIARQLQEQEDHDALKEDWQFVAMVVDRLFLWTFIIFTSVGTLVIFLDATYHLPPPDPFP
T2 sequence (Q07001 22-517): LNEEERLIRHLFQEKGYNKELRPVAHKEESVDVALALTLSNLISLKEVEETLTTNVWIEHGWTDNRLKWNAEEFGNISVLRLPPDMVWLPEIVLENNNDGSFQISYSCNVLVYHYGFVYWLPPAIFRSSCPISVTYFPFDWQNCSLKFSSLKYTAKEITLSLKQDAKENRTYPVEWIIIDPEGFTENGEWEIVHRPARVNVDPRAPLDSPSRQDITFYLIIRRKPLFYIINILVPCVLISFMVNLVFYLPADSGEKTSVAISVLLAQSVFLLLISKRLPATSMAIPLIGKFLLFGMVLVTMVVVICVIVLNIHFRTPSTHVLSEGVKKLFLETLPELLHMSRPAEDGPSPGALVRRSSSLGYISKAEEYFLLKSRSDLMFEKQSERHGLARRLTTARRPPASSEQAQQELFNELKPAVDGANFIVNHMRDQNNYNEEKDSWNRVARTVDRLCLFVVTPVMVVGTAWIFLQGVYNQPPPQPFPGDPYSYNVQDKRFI
T2 sequence (Q04844 21-493): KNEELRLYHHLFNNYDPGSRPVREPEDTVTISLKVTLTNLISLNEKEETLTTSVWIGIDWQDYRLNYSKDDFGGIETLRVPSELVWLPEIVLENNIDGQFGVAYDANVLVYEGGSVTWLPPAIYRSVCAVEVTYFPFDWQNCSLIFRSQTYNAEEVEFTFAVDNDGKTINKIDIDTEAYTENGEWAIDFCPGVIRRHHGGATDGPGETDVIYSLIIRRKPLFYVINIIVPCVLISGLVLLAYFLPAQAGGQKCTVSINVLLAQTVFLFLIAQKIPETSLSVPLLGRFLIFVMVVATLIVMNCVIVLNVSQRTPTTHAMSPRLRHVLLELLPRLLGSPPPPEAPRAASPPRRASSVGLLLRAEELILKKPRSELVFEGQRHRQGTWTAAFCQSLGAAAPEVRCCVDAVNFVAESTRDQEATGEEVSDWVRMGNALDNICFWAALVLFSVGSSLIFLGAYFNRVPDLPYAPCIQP

α4β2-nAChR = target: T3, α4β2-nAChR (Homo sapiens, UniProt P17787+P43681); assay: Patch clamp of HEK293 cells transiently expressing nAChR α4β2; assay type: cell-based; settings: four-parameter logistic fit; read-out: IC50, inhibition of α4β2-nAChR
T3 construct: expressed in transfected cells; host or cells: HEK293 (transient)
T3 sequence (P43681 29-627 limits assumed): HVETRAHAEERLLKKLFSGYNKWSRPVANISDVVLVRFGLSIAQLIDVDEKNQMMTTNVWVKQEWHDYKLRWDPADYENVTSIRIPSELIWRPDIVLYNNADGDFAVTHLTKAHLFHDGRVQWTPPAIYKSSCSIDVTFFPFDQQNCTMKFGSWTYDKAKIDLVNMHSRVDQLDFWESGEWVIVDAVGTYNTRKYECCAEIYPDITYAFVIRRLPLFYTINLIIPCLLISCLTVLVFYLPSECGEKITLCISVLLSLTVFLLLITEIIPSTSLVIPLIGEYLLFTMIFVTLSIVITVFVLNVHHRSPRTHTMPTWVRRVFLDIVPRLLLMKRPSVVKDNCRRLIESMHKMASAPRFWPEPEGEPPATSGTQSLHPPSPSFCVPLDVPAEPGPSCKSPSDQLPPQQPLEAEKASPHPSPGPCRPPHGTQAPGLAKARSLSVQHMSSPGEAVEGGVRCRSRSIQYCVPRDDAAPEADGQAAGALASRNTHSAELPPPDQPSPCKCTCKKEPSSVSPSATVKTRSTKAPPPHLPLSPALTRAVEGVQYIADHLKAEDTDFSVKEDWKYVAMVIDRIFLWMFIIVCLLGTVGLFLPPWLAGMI
T3 sequence (P17787 26-502): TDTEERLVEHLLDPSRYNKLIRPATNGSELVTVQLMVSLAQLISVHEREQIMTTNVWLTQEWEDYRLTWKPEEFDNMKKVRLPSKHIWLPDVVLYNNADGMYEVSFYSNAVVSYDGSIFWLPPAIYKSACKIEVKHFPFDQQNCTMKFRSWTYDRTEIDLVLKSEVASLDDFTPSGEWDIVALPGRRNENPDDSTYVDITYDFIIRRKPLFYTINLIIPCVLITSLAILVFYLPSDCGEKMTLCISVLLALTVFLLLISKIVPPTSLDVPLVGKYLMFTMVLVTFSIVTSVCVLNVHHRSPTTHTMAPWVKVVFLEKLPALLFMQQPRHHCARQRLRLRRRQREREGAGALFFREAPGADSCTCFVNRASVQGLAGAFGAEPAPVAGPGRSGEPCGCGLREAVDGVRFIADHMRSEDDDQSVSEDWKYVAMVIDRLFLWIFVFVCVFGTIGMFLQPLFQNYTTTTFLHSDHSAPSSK
Protocol: The patch clamp recording was performed on the third or fourth day after transfection based on the expression level of co-transfected GFP gene. Detailed description of the transfection procedures can be found in the Supporting information.
nAChR α4β2: HEK293 cells were seeded on poly-D-lysine-coated coverslips placed in a 24-well plate at a density of 8×10^3 cells per well. Cells were transfected with nAChR α4/nAChR β2/GFP with the ratio 2:2:1. The X-tremeGENE HP DNA (Roche) was used for transfection, and the ratio of plasmid to transfection reagent was 1 μg: 2 μL.

[2] = system: rat hippocampal brain slices; assay: EPSC recording (evoked, spontaneous, miniature) in hippocampal brain slices; assay type: cell-based
AMPA receptor = assay: Glutamate-induced currents of AMPA receptor in primary hippocampal neuronal cultures; assay type: cell-based; settings: primary rat hippocampal neuronal cultures
Protocol: Rat primary neuronal culture: Primary neuron cultures were prepared from newborn rats. A mixed culture of hippocampal, cortical and thalamic neurons was used for calcium imaging assays. For patch clamp studies, hippocampal neurons from the CA1 region were extracted. The trypsinized brain tissue was incubated at 37°C for 20 minutes before the removal of the enzyme. The cells were washed three times with PBS and suspended with fresh media before being plated on poly-D-lysine-coated coverslips. After 4 h, the media was replaced by Neurobasal+B27+L-Glu (Thermo scientific, USA). Half of the culture medium was changed after 24 h before switched to a 72-hr medium change routine.
(§1) Figure S5. Amperograms of CN-105's effect on GluR (AMPA-R) in primary rat hippocampal neuronal cultures (Left) and on GluN (NMDA-R) in a culture of HEK293 cells stably expressing NMDA receptor (Right).

NMDA receptor = assay: Glutamate-induced currents in HEK293 cells stably expressing NMDA receptor; assay type: cell-based
Text: as §1

[3] = system: SD rats, transient ischemic stroke; assay: Transient middle cerebral artery occlusion (t-MCAO) model; assay type: in vivo, rat; settings: Day 8; for Infarct volume: rat t-MCAO
Protocol: Eighty-three Sprague-Dawley (SD) rats were randomly divided into six groups with both sexes as follows: 1) sham group (n=8), 2) vehicle group (n=15), 3) 0.1 mg/kg CN105 (n=15), 4) 0.2 mg/kg CN105 (n=15), 5) 0.4 mg/kg CN-105 (n=15), 6) 6mg/kg edaravone (n=15). Ischemic insult was introduced based on pre-established protocol. Briefly, rats were placed supine under anesthesia, and then the left common carotid arteries were exposed under sterile conditions. A suture was gently inserted into the internal carotid artery through the external carotid artery until the origin of the middle cerebral artery was occluded. The suture thread was removed 90 min after the ischemia, allowing restoration of the blood supply. Animals in the sham group were exposed of the left common carotid artery under anesthesia without ischemic occlusion. A single dose of CN-105 or edaravone were administered intravenously (iv.) 30min after reperfusion. The injection volume was 5mL/kg, given in 2 min. Animals in each group were euthanized at the end of the experiment. Brains were fixed in 10% formalin. The 3 mm-thick coronal brain sections were scanned and imaged to measure the percentage of viable and infarction brain tissue to calculate the percentage of cerebral infarction volume.

[4] = rat, in vivo, iv
[5] = monkey, in vivo, iv
in vivo [6] = settings: both, SD, rat, iv
in vivo [7] = settings: both, monkey, iv
α7-nAChR [8] = target: T1, α7-nAChR

CC(=O)N[C@H](C(=O)N[C@@H](CS)C(=O)N[C@@H](CCCNC(=N)N)C(=O)N[C@@H](CCCNC(=N)N)C(=O)N[C@@H](CCCNC(=N)N)C(N)=O)C(C)C [Ac-VCRRR-NH2] (Ac-VCRRR-NH2)
%Inhibition of α7-nAChR (α7-nAChR [1]): 5.9%

CC(=O)N[C@H](C(=O)N[C@@H](CO)C(=O)N[C@@H](CCCCN)C(=O)N[C@@H](CCCCN)C(=O)N[C@@H](CCCNC(=N)N)C(N)=O)C(C)C [Ac-VSKKR-NH2] (Ac-VSKKR-NH2)
%Inhibition of α7-nAChR (α7-nAChR [1]): 48.9%

CC(=O)N[C@H](C(=O)N[C@@H](CO)C(=O)N[C@@H](CCCNC(=N)N)C(=O)N[C@@H](CCCNC(=N)N)C(=O)N[C@@H](CCCNC(=N)N)C(N)=O)C(C)C [CN-105, Ac-VSRRR-NH2] (Ac-VSRRR-NH2)
Observation after removal of isoflurane anaesthesia (C57BL6 mice; 50 mg/kg, intubated and mechanically ventilated): extended sedation
Symptoms at lethal dose (C57BL6 mice; C57BL6 mice, 25 mg/kg tail vein): spasm and respiratory suppression
Mortality under intubation and mechanical ventilation (C57BL6 mice; C57BL6 mice, 50 mg/kg, mechanical ventilation with isoflurane anaesthesia): not associated with mortality
LD80 (C57BL6 mice; C57BL6 mice, single tail vein injection, autonomous respiration): 25 mg/kg
Time of gradual recovery to normal activity (about two serum clearance half-lives) (Cynologous monkey; supratherapeutic dosing): ~4 h
Symptoms after supratherapeutic dosing (Cynologous monkey; supratherapeutic iv dosing): mydriasis and ptosis
Effect on ACh induced current (α7-nAChR [1]; 10 μM CN-105, HEK293 overexpressing α7-nAChR): strongly suppressed
IC50 (α7-nAChR [1]; four-parameter logistic fit, read-out: IC50, inhibition of α7-nAChR): 31 nM
%Inhibition of α7-nAChR (α7-nAChR [1]): 61.4%
Voltage of maximal inhibition (α7-nAChR [1]; voltage dependency, CN-105 40 nM): –80 mV
IC50 (α1β1δε-nAChR): 2100 nM
IC50 (α4β2-nAChR): 500 nM
Spontaneous EPSC (sEPSC) frequency ([2]; rat hippocampal brain slice, CN-105 200 μM as printed in Figure 3 legend): attenuation
Evoked EPSC mediated by NMDA receptor versus control ([2]; rat hippocampal brain slices, holding +50 mV): significantly lower
Evoked EPSC mediated by AMPA receptor versus control ([2]; rat hippocampal brain slices, holding -70 mV): significantly lower
NMDA receptor-mediated EPSC with tetrodotoxin (mEPSC) ([2]; tetrodotoxin added to block all AP firings): no longer able to affect
Direct effect on glutamate-induced currents, AMPA receptor (AMPA receptor): did not directly inhibit
Direct effect on glutamate-induced currents, NMDA receptor (NMDA receptor): did not directly inhibit
Density of viable neurons (NeuN+ cells) ([3]; 1 mm2 area at infarct margin): higher
Number of β3-GABAAR+ cells at infarct margin ([3]; 1 mm2 area): unaffected
Density of α7-nAChR+ cells at infarct margin versus vehicle ([3]; primary somatosensory cortex, 1 mm2 area): higher density
Infarct volume ([3]; 0.1 to 0.4 mg/kg single iv 30 min after reperfusion): significantly reduced
Kel ([4]; 0.1 mg/kg): 2.09 ± 0.258 h⁻¹
Kel ([4]; 0.3 mg/kg): 1.73 ± 0.203 h⁻¹
Kel ([4]; 1 mg/kg): 1.13 ± 0.106 h⁻¹
Kel ([4]; 3 mg/kg): 0.823 ± 0.204 h⁻¹
Kel ([5]; 0.1 mg/kg): 0.566 ± 0.156 h⁻¹
Kel ([5]; 0.5 mg/kg): 0.481 ± 0.058 h⁻¹
Kel ([5]; 2.5 mg/kg): 0.445 ± 0.054 h⁻¹
AUC(0-t) (in vivo [6]; 0.1 mg/kg): 125 ± 14.3 ng·h/mL
C0 (in vivo [6]; 0.1 mg/kg): 560 ± 181 ng/mL
Cmax (in vivo [6]; 0.1 mg/kg): 410 ± 90.5 ng/mL
Tmax (in vivo [6]; 0.1 mg/kg): 2.3 ± 0.948 min
Vd (in vivo [6]; 0.1 mg/kg): 0.385 ± 0.0711 L/kg
clearance (in vivo [6]; 0.1 mg/kg): 13.2 mL/min/kg
half-life (in vivo [6]; 0.1 mg/kg): 20.2 ± 2.52 min
AUC(0-t) (in vivo [6]; 0.3 mg/kg): 504 ± 56.6 ng·h/mL
C0 (in vivo [6]; 0.3 mg/kg): 2250 ± 463 ng/mL
Cmax (in vivo [6]; 0.3 mg/kg): 1570 ± 211 ng/mL
Tmax (in vivo [6]; 0.3 mg/kg): 2 min
Vd (in vivo [6]; 0.3 mg/kg): 0.342 ± 0.0363 L/kg
clearance (in vivo [6]; 0.3 mg/kg): 9.8 mL/min/kg
half-life (in vivo [6]; 0.3 mg/kg): 24.3 ± 3.3 min
AUC(0-t) (in vivo [6]; 1 mg/kg): 1800 ± 192 ng·h/mL
C0 (in vivo [6]; 1 mg/kg): 7680 ± 1740 ng/mL
Cmax (in vivo [6]; 1 mg/kg): 5320 ± 906 ng/mL
Tmax (in vivo [6]; 1 mg/kg): 2 min
Vd (in vivo [6]; 1 mg/kg): 0.5 ± 0.085 L/kg
clearance (in vivo [6]; 1 mg/kg): 9.28 mL/min/kg
half-life (in vivo [6]; 1 mg/kg): 37.2 ± 3.87 min
AUC(0-t) (in vivo [6]; 3 mg/kg): 5920 ± 508 ng·h/mL
C0 (in vivo [6]; 3 mg/kg): 24000 ± 2360 ng/mL
Cmax (in vivo [6]; 3 mg/kg): 17000 ± 1400 ng/mL
Tmax (in vivo [6]; 3 mg/kg): 2 min
Vd (in vivo [6]; 3 mg/kg): 0.645 ± 0.137 L/kg
clearance (in vivo [6]; 3 mg/kg): 8.48 mL/min/kg
half-life (in vivo [6]; 3 mg/kg): 52.8 ± 10.2 min
AUC(0-t) (in vivo [7]; 0.1 mg/kg): 348 ± 33.7 ng·h/mL
Cmax (in vivo [7]; 0.1 mg/kg): 320 ± 20.2 ng/mL
Tmax (in vivo [7]; 0.1 mg/kg): 30 min
Vd (in vivo [7]; 0.1 mg/kg): 0.564 ± 0.271 L/kg
clearance (in vivo [7]; 0.1 mg/kg): 4.75 mL/min/kg
half-life (in vivo [7]; 0.1 mg/kg): 82.8 ± 39.6 min
AUC(0-t) (in vivo [7]; 0.5 mg/kg): 1650 ± 209 ng·h/mL
Cmax (in vivo [7]; 0.5 mg/kg): 1500 ± 251 ng/mL
Tmax (in vivo [7]; 0.5 mg/kg): 30 min
Vd (in vivo [7]; 0.5 mg/kg): 0.642 ± 0.086 L/kg
clearance (in vivo [7]; 0.5 mg/kg): 5.12 mL/min/kg
half-life (in vivo [7]; 0.5 mg/kg): 87.6 ± 10.3 min
AUC(0-t) (in vivo [7]; 2.5 mg/kg): 8300 ± 1200 ng·h/mL
Cmax (in vivo [7]; 2.5 mg/kg): 7460 ± 1190 ng/mL
Tmax (in vivo [7]; 2.5 mg/kg): 30 min
Vd (in vivo [7]; 2.5 mg/kg): 0.691 ± 0.107 L/kg
clearance (in vivo [7]; 2.5 mg/kg): 5.08 mL/min/kg
half-life (in vivo [7]; 2.5 mg/kg): 94.8 ± 12 min

CC(=O)N[C@@H](C)C(=O)N[C@@H](CO)C(=O)N[C@@H](CCCNC(=N)N)C(=O)N[C@@H](CCCNC(=N)N)C(=O)N[C@@H](CCCNC(=N)N)C(N)=O [Ac-ASRRR-NH2] (Ac-ASRRR-NH2)
%Inhibition of α7-nAChR (α7-nAChR [1]): 7.4%

CC1=NN(c2ccccc2)C(=O)C1 [edaravone, reference compound]
Infarct volume ([3]; edaravone 6 mg/kg single iv 30 min after reperfusion): similar

apoE130‐149 (peptide)
IC50 of inhibition of α7‐nAChR current (electrophysiology); given only as the concentration used, close to the IC50 (α7-nAChR [8]): 500 nM

CC(=O)N[C@@H](CCCNC(=N)N)C(=O)N[C@@H](CO)C(=O)N[C@@H](CCCCN)C(=O)N[C@@H](CCCNC(=N)N)C(=O)N[C@@H](CCCNC(=N)N)C(N)=O [Ac-RSKRR-NH2] (Ac-RSKRR-NH2)
%Inhibition of α7-nAChR (α7-nAChR [1]): 9.3%

CSCC[C@H](NC(C)=O)C(=O)N[C@@H](CO)C(=O)N[C@@H](CCCNC(=N)N)C(=O)N[C@@H](CCCNC(=N)N)C(=O)N[C@@H](CCCNC(=N)N)C(N)=O [Ac-MSRRR-NH2] (Ac-MSRRR-NH2)
%Inhibition of α7-nAChR (α7-nAChR [1]): 38.3%

B1: CN‐105 (peptide)
peptide: Ac-VSRRR-NH2
IC50 of inhibition of α7‐nAChR current (electrophysiology); given only as the concentration used, close to the IC50 (α7-nAChR [8]): 40 nM
